The structures appear in SMILES notation.

The target in this test is T1, Human GLP-1 receptor stably expressing cells (hGLP-1R/CHO-K1 cells) (Homo sapiens, UniProt P43220).
T1 construct: expressed in transfected cells
Description: Measurement of GLP-1 receptor agonist activity (cAMP assay). Format: cell-based. The conditions noted are these: for Emax: CHO-K1, maximum effect, cAMP with 2 nM human GLP-1 (7-36) = 100%, DMSO only = 0%, read-out: Emax; for EC50: increase in cAMP concentration in hGLP-1R/CHO-K1 cells, 37° C. 1 hour. Put shortly:
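hGLP-1R/CHO-K1 cells (cryopreserved) incubated with compound and forskolin in HBSS with 0.1% BSA, IBMX and RO20-1724, 1 h at 37° C; cAMP read by HTRF. EC50 and Emax from cAMP rise, normalised to 2 nM human GLP-1 (7-36) (100%) and DMSO (0%).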

T1 sequence (P43220 24-463): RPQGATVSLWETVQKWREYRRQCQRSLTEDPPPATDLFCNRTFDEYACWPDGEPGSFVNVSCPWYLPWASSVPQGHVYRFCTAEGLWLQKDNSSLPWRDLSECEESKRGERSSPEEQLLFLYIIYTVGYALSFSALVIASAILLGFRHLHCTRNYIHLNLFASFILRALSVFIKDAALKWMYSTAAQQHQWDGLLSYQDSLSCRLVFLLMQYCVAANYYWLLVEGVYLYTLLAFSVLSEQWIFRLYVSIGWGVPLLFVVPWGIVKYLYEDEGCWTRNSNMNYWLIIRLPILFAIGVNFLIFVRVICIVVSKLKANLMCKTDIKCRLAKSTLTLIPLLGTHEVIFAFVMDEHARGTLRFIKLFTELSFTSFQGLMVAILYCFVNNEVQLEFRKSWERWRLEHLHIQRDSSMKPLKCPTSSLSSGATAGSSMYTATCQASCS

Consider `C[C@H]1c2nc(OCc3ccc(F)cc3F)c(C(F)F)cc2CCN1Cc1nc2ccc(C(=O)O)c(F)c2n1C[C@@H]1CCO1` [Compound I-121], for which the Emax was found to be 119% and the midpoint of the response, the EC50, lay at 0.148 nM.

With `C[C@H]1c2nc(OCc3ccc(Cl)cc3Cl)c(C(F)F)cc2CCN1Cc1nc2ccc(C(=O)O)c(F)c2n1C[C@@H]1CCO1` [Compound I-122], the Emax amounted to 112% and a half-maximal effect (EC50) was put at 0.073 nM.

With `C[C@H]1c2nc(OCc3ccc(Cl)cn3)c(C(F)F)cc2CCN1Cc1nc2ccc(C(=O)O)c(F)c2n1C[C@@H]1CCO1` [Compound I-123], the Emax was found to be 127% and the EC50 was found to be 0.275 nM.

As for `C[C@H]1c2nc(OCc3c(F)cc(Cl)cc3F)c(C(F)F)cc2CCN1Cc1nc2ccc(C(=O)O)c(F)c2n1C[C@@H]1CCO1` [Compound I-124], the Emax amounted to 115% and the response was half-maximal at 0.038 nM (EC50).

Consider `C[C@H]1c2nc(OCc3c(F)cc(F)cc3F)c(C(F)F)cc2CCN1Cc1nc2ccc(C(=O)O)c(F)c2n1C[C@@H]1CCO1` [Compound I-125], for which the maximum response (Emax) was found to be 123% and the EC50 worked out at 0.0856 nM.

Turning to `C[C@H]1c2nc(OCc3cc(F)c(Cl)cc3F)c(C(F)F)cc2CCN1Cc1nc2ccc(C(=O)O)c(F)c2n1C[C@@H]1CCO1` [Compound I-126], the maximal effect (Emax) worked out at 111% and the EC50 amounted to 0.0635 nM.

Regarding `C[C@H]1c2nc(OCc3ccc(C#N)cc3F)c(C(F)F)cc2CCN1Cc1nc2ccc(C(=O)O)c(F)c2n1C[C@@H]1CCO1` [Compound I-127], the maximum response (Emax) was 121% and the EC50 is 0.104 nM.

On to `COc1cc(C(=O)O)cc2c1nc(CN1CCc3cc(C(F)F)c(OCc4ccc(Cl)cc4F)nc3[C@@H]1C)n2C[C@@H]1CCO1` [Compound I-128], for which the Emax was found to be 128% and the half-maximal effective concentration (EC50) stood at 0.0122 nM.

With `COc1cc(C(=O)O)cc2c1nc(CN1CCc3cc(C(F)F)c(OCc4ccc(Cl)cc4)nc3[C@@H]1C)n2C[C@@H]1CCO1` [Compound I-129], the Emax came out at 131% and the EC50 is 0.0303 nM.

For the compound `COc1cc(C(=O)O)cc2c1nc(CN1CCc3cc(C(F)F)c(OCc4ccccc4Cl)nc3[C@@H]1C)n2C[C@@H]1CCO1` [Compound I-130], the Emax was determined as 141% and a half-maximal response (EC50) required 0.108 nM.

Regarding `COc1cc(C(=O)O)cc2c1nc(CN1CCc3cc(C(F)F)c(OCc4ccc(F)cc4F)nc3[C@@H]1C)n2C[C@@H]1CCO1` [Compound I-131], the Emax was 123% and a half-maximal effect (EC50) was put at 0.0299 nM.

With `COc1cc(C(=O)O)cc2c1nc(CN1CCc3cc(C(F)F)c(OCc4ccc(Cl)cc4Cl)nc3[C@@H]1C)n2C[C@@H]1CCO1` [Compound I-132], the Emax amounted to 127% and the EC50 came to 0.0162 nM.

With `COc1cc(C(=O)O)cc2c1nc(CN1CCc3cc(C(F)F)c(OCc4ccc(Cl)cn4)nc3[C@@H]1C)n2C[C@@H]1CCO1` [Compound I-133], the maximal effect (Emax) turned out to be 122% and a half-maximal effect (EC50) was put at 0.0591 nM.

As for `COc1cc(C(=O)O)cc2c1nc(CN1CCc3cc(C(F)F)c(OCc4c(F)cc(Cl)cc4F)nc3[C@@H]1C)n2C[C@@H]1CCO1` [Compound I-134], the Emax worked out at 128% and the EC50 stood at 0.0104 nM.

Take `COc1cc(C(=O)O)cc2c1nc(CN1CCc3cc(C(F)F)c(OCc4ccc(C#N)cc4F)nc3[C@@H]1C)n2C[C@@H]1CCO1` [Compound I-135]: the Emax amounted to 134% and a half-maximal effect (EC50) was put at 0.0165 nM.

Regarding `C[C@H]1c2nc(OCc3ccc(Cl)cc3F)c(C#N)cc2CCN1Cc1nc2ccc(C(=O)O)cc2n1C[C@@H]1CCO1` [Compound I-136], the Emax stood at 106% and it took 0.339 nM to reach a half-maximal effect (EC50).

For `C[C@H]1c2nc(OCc3ccc(Cl)cc3F)c(C#N)cc2CCN1Cc1nc2ccc(C(=O)O)c(F)c2n1C[C@@H]1CCO1` [Compound I-137], the Emax was 136% and the EC50 was 0.224 nM.

With `C[C@H]1c2nc(OCc3ccc(Cl)cc3F)c(C#N)cc2CCN1Cc1nc2c(F)cc(C(=O)O)cc2n1C[C@@H]1CCO1` [Compound I-138], the Emax turned out to be 128% and the EC50 stood at 0.119 nM.

With `COc1cc(C(=O)O)cc2c1nc(CN1CCc3cc(C#N)c(OCc4ccc(Cl)cc4F)nc3[C@@H]1C)n2C[C@@H]1CCO1` [Compound I-139], the Emax was 118% and the EC50 amounted to 0.0326 nM.

As for `C[C@H]1c2nc(OCc3cnn(C)n3)c(C(F)(F)F)cc2CCN1Cc1nc2ccc(C(=O)O)cc2n1C[C@@H]1CCO1` [Compound I-142], the Emax came out at 117% and the EC50 was 7.33 nM.

Consider `C[C@H]1c2nc(OCc3ccc(C#N)c4ccoc34)c(C(F)(F)F)cc2CCN1Cc1nc2ccc(C(=O)O)cc2n1C[C@@H]1CCO1` [Compound I-143], for which the maximum response (Emax) was 129% and a half-maximal response (EC50) required 0.0999 nM.

Take `COc1cc(C(=O)O)cc2c1nc(CN1CCc3cc(C#N)c(OCc4ccc(Cl)cc4)nc3[C@@H]1C)n2C[C@@H]1CCO1` [Compound I-144]: the Emax is 124% and a half-maximal response (EC50) required 0.0625 nM.

Take `COc1cc(C(=O)O)cc2c1nc(CN1CCc3cc(C#N)c(OCc4ccccc4Cl)nc3[C@@H]1C)n2C[C@@H]1CCO1` [Compound I-145]: the Emax is 109% and a half-maximal effect (EC50) was put at 0.121 nM.

Take `COc1cc(C(=O)O)cc2c1nc(CN1CCc3cc(C#N)c(OCc4cc(F)c(Cl)cc4F)nc3[C@@H]1C)n2C[C@@H]1CCO1` [Compound I-146]: the Emax was 115% and the EC50 was 0.0293 nM.

On to `COc1cc(C(=O)O)cc2c1nc(CN1CCc3cc(C#N)c(OCc4ccc(Cl)cn4)nc3[C@@H]1C)n2C[C@@H]1CCO1` [Compound I-147], for which the Emax amounted to 128% and the concentration for a half-maximal effect (EC50) came to 0.162 nM.

As for `C[C@H]1c2nc(OCc3cc(Cl)cs3)c(C(F)(F)F)cc2CCN1Cc1nc2ccc(C(=O)O)cc2n1C[C@@H]1CCO1` [Compound I-148], the Emax amounted to 99.3% and it took 0.89 nM to reach a half-maximal effect (EC50).

As for `C[C@H]1c2nc(OCc3nc(Cl)cs3)c(C(F)(F)F)cc2CCN1Cc1nc2ccc(C(=O)O)cc2n1C[C@@H]1CCO1` [Compound I-149], the Emax turned out to be 97.7% and the EC50 amounted to 1.09 nM.

Take `COc1cc(C(=O)O)cc2c1nc(CN1CCc3cc(C(F)(F)F)c(NCc4ccc(Cl)cc4F)nc3[C@@H]1C)n2C[C@@H]1CCO1` [Compound I-150]: the maximum response (Emax) came out at 105% and a half-maximal response (EC50) required 0.0391 nM.

Take `C[C@H]1c2nc(NCc3ccc(Cl)cc3F)c(C(F)(F)F)cc2CCN1Cc1nc2c(Cl)cc(C(=O)O)cc2n1C[C@@H]1CCO1` [Compound I-151]: the Emax amounted to 92.7% and the EC50 is 0.0738 nM.

As for `C[C@H]1c2nc(NCc3ccc(Cl)cc3F)c(C(F)(F)F)cc2CCN1Cc1nc2c(F)cc(C(=O)O)cc2n1C[C@@H]1CCO1` [Compound I-152], the Emax worked out at 105% and the EC50 came to 0.0992 nM.

Regarding `C[C@H]1c2nc(NCc3ccc(Cl)cc3F)c(C(F)(F)F)cc2CCN1Cc1nc2ccc(C(=O)O)c(F)c2n1C[C@@H]1CCO1` [Compound I-153], the Emax came out at 112% and a half-maximal effect (EC50) was put at 0.19 nM.

Turning to `C[C@H]1c2nc(OCc3cc(Cl)n(C)n3)c(C(F)(F)F)cc2CCN1Cc1nc2ccc(C(=O)O)cc2n1C[C@@H]1CCO1` [Compound I-154], the Emax came out at 101% and the EC50 stood at 7.04 nM.

As for `COc1cc(C(=O)O)cc2c1nc(CN1CCc3cc(C(F)(F)F)c(OCc4cc(Cl)n(C)n4)nc3[C@@H]1C)n2C[C@@H]1CCO1` [Compound I-155], the Emax was determined as 96.3% and the 50% effective concentration (EC50) came out at 0.87 nM.

On to `C[C@H]1c2c(cc(C(F)(F)F)c3c2O[C@@](C)(c2ccc(Cl)cn2)O3)CCN1Cc1nc2c(F)cc(C(=O)O)cc2n1C[C@@H]1CCO1` [Compound I-156], for which the Emax is 101% and the EC50 came to 0.671 nM.

Regarding `C[C@H]1c2c(cc(C(F)(F)F)c3c2O[C@@](C)(c2ccc(Cl)cn2)O3)CCN1Cc1nc2c(Cl)cc(C(=O)O)cc2n1C[C@@H]1CCO1` [Compound I-158], the Emax was found to be 111% and the EC50 was 0.493 nM.

With `COc1cc(C(=O)O)cc2c1nc(CN1CCc3cc(C(F)(F)F)c4c(c3[C@@H]1C)O[C@@](C)(c1ccc(Cl)cn1)O4)n2C[C@@H]1CCO1` [Compound I-159], the Emax was 99.3% and the EC50 was found to be 0.155 nM.

Consider `Cc1nc(COc2nc3c(cc2C(F)(F)F)CCN(Cc2nc4ccc(C(=O)O)cc4n2C[C@@H]2CCO2)[C@H]3C)no1` [Compound I-160], for which the Emax turned out to be 66.3% and a half-maximal effect (EC50) was put at 83.5 nM.

On to `Cc1nonc1COc1nc2c(cc1C(F)(F)F)CCN(Cc1nc3ccc(C(=O)O)cc3n1C[C@@H]1CCO1)[C@H]2C` [Compound I-161], for which the Emax amounted to 73% and a half-maximal effect (EC50) was put at 28.2 nM.

Turning to `Cc1noc(COc2nc3c(cc2C(F)(F)F)CCN(Cc2nc4ccc(C(=O)O)cc4n2C[C@@H]2CCO2)[C@H]3C)n1` [Compound I-162], the Emax came to 88% and a half-maximal response (EC50) required 26 nM.

With `C[C@H]1c2nc(OCc3nc4ccccn4n3)c(C(F)(F)F)cc2CCN1Cc1nc2ccc(C(=O)O)cc2n1C[C@@H]1CCO1` [Compound I-163], the Emax is 83.3% and the EC50 came out at 32.3 nM.

For `C[C@H]1c2c(cc(C(F)(F)F)c3c2O[C@@](C)(c2ccc(Cl)cc2F)O3)CCN1Cc1nc2c(F)cc(C(=O)O)cc2n1C[C@@H]1CCO1` [Compound I-164], the Emax is 108% and a half-maximal effect (EC50) was put at 1.63 nM.

Take `C[C@H]1c2nc(OCc3ccc(C#N)c4occc34)c(C(F)(F)F)cc2CCN1Cc1nc2ccc(C(=O)O)cc2n1C[C@@H]1CCO1` [Compound I-165]: the maximal effect (Emax) turned out to be 111% and the EC50 came out at 0.965 nM.

Take `C[C@H]1c2nc(NCc3ccc(Cl)cc3Cl)c(C(F)(F)F)cc2CCN1Cc1nc2c(F)cc(C(=O)O)cc2n1C[C@@H]1CCO1` [Compound I-166]: the Emax is 109% and a half-maximal effect (EC50) was put at 0.205 nM.

A word on the Emax: it is the greatest response seen or fitted, relative to the assay's reference. Usually EC50 stands for the concentration needed to bring the measured effect to its halfway point. A lower EC50 goes with an effect from little substance.

For the origin of these results see patent US20260097037A1, “FUSED RING COMPOUND HAVING GLP-1 RECEPTOR AGONIST EFFECT” (Shionogi & Co., Ltd., priority 2022, published 2026).
